As a reminder, the IC50 is the point on the concentration scale where inhibition reaches its midpoint. The AC50 is the midpoint of the concentration-response curve, whichever way the signal moves.

In assay [1] the test system is U-251. Description: Antiproliferative activity against human U251 cells assessed as reduction in cell viability after 72 hrs by MTT assay. The class given is functional, cell-based. As to conditions: U-251, 72 h.
The subject of assay [2] is U-87 MG. As to the kind of experiment: Antiproliferative activity against human U87 cells assessed as reduction in cell viability after 72 hrs by MTT assay. Format: functional, cell-based, U-87MG ATCC.
In assay [3] the test system is C6. Description: Antiproliferative activity against rat C6 cells assessed as reduction in cell viability after 72 hrs by MTT assay. Format: functional, cell-based. Conditions: C6, 72 h. Background: Tetrazolium dyes change colour on reduction, which living cells bring about.
For assay [4], the system named is SF-126. As to the kind of experiment: Antiproliferative activity against human SF126 cells assessed as reduction in cell viability after 72 hrs by MTT assay. As to conditions: SF-126, 72 h. The class given is functional, cell-based.
Assay [5] relates to U-118-MG. As to the kind of experiment: Antiproliferative activity against human U118MG cells assessed as reduction in cell viability after 72 hrs by MTT assay. Format: functional, cell-based.
Assay [6] relates to NIH3T3. Description: Cytotoxicity against mouse 3T3 cells assessed as reduction in cell viability after 72 hrs by MTT assay. Conditions: NIH3T3, 72 h. Format: cell-based.
Assay [7] in a line: Antiproliferative activity against human SHG44 cells assessed as reduction in cell viability after 72 hrs by MTT assay. The class given is functional, cell-based. As to conditions: SHG-44, 72 h.
In assay [8] the target is T1, Pyruvate kinase PKM (Homo sapiens, UniProt P14618). Description: Activation of recombinant human N-terminal 6His-tagged PKM2 expressed in Escherichia coli BL21 cells after 50 mins by fluorescence based analysis.
Target sequence in this assay (P14618 whole entry): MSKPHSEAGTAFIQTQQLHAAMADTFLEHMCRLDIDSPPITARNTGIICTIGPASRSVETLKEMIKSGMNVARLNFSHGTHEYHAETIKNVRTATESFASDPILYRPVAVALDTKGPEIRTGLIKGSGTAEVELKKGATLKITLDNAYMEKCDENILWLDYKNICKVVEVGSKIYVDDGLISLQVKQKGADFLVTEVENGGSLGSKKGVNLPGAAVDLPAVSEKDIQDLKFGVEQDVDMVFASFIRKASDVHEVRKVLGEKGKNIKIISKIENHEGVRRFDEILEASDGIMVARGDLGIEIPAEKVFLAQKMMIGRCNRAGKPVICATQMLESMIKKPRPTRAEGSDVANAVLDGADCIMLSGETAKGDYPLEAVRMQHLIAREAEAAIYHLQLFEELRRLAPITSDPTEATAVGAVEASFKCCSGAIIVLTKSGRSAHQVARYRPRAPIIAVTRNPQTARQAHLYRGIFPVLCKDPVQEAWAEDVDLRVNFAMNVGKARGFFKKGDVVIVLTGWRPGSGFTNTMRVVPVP
The target in assay [9] is T1, Pyruvate kinase PKM. As to the kind of experiment: Activation of recombinant human N-terminal 6His-tagged PKM2 expressed in Escherichia coli BL21 cells at 10 uM after 30 mins by fluorescence based analysis relative to control.
Target sequence in this assay (P14618 2-531 limits assumed): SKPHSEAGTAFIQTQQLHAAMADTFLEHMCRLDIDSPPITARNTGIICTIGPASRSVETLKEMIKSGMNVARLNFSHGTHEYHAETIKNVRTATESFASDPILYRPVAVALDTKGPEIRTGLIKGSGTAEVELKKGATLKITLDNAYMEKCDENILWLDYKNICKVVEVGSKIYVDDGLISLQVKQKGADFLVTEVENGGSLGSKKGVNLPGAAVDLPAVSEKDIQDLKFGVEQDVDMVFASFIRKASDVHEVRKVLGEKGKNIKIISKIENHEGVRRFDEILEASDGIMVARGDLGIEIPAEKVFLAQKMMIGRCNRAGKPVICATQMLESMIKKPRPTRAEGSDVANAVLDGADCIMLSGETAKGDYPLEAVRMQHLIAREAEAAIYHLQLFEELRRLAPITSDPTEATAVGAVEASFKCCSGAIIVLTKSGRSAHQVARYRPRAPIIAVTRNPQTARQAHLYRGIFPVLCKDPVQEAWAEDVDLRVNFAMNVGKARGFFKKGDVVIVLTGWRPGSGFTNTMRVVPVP

SMILES strings stand for the structures. Structures can show the parent of a compound that is named as a salt.

Consider `Cn1c2cc([S+](C)[O-])sc2c2cnn(Cc3cccc(N)c3)c(=O)c21` (stereo not drawn), for which the IC50 in assay [1] amounted to 65.4 µM; in assay [2] it was 86.3 µM; in assay [3], 81.8 µM; in [4], 89 µM; in [5] it was 85 µM; in [6], 56.6 µM. The half-inhibitory concentration (IC50) in [7] amounted to 49 µM.
Regarding `C=C1C(=O)O[C@H]2[C@H]1CC/C(C(=O)OCCOCCOCCOCCOCCOCCOCCOCCOC(=O)/C1=C/CC[C@@]3(C)O[C@H]3[C@H]3OC(=O)C(=C)[C@@H]3CC1)=C\CC[C@@]1(C)O[C@@H]21`, the IC50 in assay [1] was over 50 µM; in assay [2], 12.9 µM; in assay [3], 4.98 µM; in [4] it was over 50 µM; in [5], 11.8 µM; in assay [6], 22 µM. In [7], the IC50 stood at 25.7 µM. In addition, the AC50 in assay [8] turned out to be 0.065 µM. For the same molecule, in [9], the fold change (FC) is over 2.
For `C=C1C(=O)O[C@H]2[C@H]1CC/C(C(=O)OCCOCCOCCOCCOCCOCCOCCOCCOCCOCCOCCOCCOCCOCCOCCOCCOCCOCCOC(=O)/C1=C/CC[C@@]3(C)O[C@H]3[C@H]3OC(=O)C(=C)[C@@H]3CC1)=C\CC[C@@]1(C)O[C@@H]21`, the IC50 in assay [1], in assay [2], in assay [3], in assay [4], in assay [5] and in assay [6] was over 50 µM throughout. Moreover, the IC50 in assay [7] was over 50 µM. The fold change (FC) in assay [9] was over 2.
On to `C=C1C(=O)O[C@H]2[C@H]1CC/C(C(=O)OCCOCCOCCOCCOCCOCCOCCOCCOCCOCCOCCOCCOCCOCCOCCOCCOCCOCCOCCOCCOCCOCCOCCOCCOC(=O)/C1=C/CC[C@@]3(C)O[C@H]3[C@H]3OC(=O)C(=C)[C@@H]3CC1)=C\CC[C@@]1(C)O[C@@H]21`, for which the IC50 in assay [1], in assay [2], in [3], in [4], in [5] and in [6] was over 50 µM each time. In addition, the IC50 in [7] was over 50 µM. In addition, in [9], the fold change (FC) was over 2.
`C=C1C(=O)O[C@H]2[C@H]1CC/C(C(=O)OCCOCCOCCOCCOCCOCCOCCOCCOCCOCCOCCOCCOC(=O)/C1=C/CC[C@@]3(C)O[C@H]3[C@H]3OC(=O)C(=C)[C@@H]3CC1)=C\CC[C@@]1(C)O[C@@H]21`: the IC50 was over 50 µM in [1]; 16.2 µM in [2]; over 50 µM in assay [3]; over 50 µM in [4]; 17.4 µM in assay [5]; over 50 µM in assay [6]. The concentration for half-maximal inhibition (IC50) in assay [7] worked out at 50.1 µM. Besides, the fold change (FC) in assay [9] was over 2.
As for `COc1cccc2c1C(=O)c1c(O)c3c(c(O)c1C2=O)C[C@@](O)(C(=O)CO)C[C@@H]3O[C@H]1C[C@H](N)[C@H](O)[C@H](C)O1` [DOXORUBICIN HYDROCHLORIDE], the IC50 is 48 µM in assay [1]; 0.15 µM in [2]; 0.06 µM in assay [3]; 0.26 µM in [4]; 0.09 µM in [5]; 0.34 µM in [6]. In [7], the IC50 was 1.84 µM.
Take `C=C1C(=O)O[C@H]2[C@H]1CC/C(C(=O)OCCOCCOCCOCCOCCOCCOC(=O)/C1=C/CC[C@@]3(C)O[C@H]3[C@H]3OC(=O)C(=C)[C@@H]3CC1)=C\CC[C@@]1(C)O[C@@H]21`: the half-maximal inhibitory concentration (IC50) in assay [1] is over 50 µM; in [2], 15.1 µM; in assay [3], over 50 µM; in [4], over 50 µM; in assay [5], 10.6 µM; in assay [6] it was over 50 µM. In addition, the IC50 in assay [7] was over 50 µM. Also, the fold change (FC) in assay [9] was over 2.
As for `C=C1C(=O)O[C@H]2[C@H]1CC/C(C(=O)OCCOCCOCCOCCOCCOCCOCCOCCOCCOCCOCCOCCOCCOCCOCCOCCOCCOCCOCCOCCOC(=O)/C1=C/CC[C@@]3(C)O[C@H]3[C@H]3OC(=O)C(=C)[C@@H]3CC1)=C\CC[C@@]1(C)O[C@@H]21`, the IC50 in [1], in assay [2], in [3], in assay [4], in [5] and in assay [6] was over 50 µM each time. Further, the IC50 in assay [7] was over 50 µM. Also, the fold change (FC) in assay [9] is over 2.
For the molecule `C=C1C(=O)O[C@H]2[C@H]1CC/C(C(=O)OCCOCCOCCOCCOCCOC(=O)/C1=C/CC[C@@]3(C)O[C@H]3[C@H]3OC(=O)C(=C)[C@@H]3CC1)=C\CC[C@@]1(C)O[C@@H]21`, the half-maximal inhibitory concentration (IC50) in assay [1] amounted to 14.1 µM; in [2], 10.6 µM; in assay [3], 4.82 µM; in assay [4], 21 µM; in [5], 7.5 µM; in [6] it was 18.8 µM. The IC50 in assay [7] worked out at 18.5 µM. Further, in assay [9], the fold change (FC) was over 2.
For the molecule `C=C1C(=O)O[C@H]2[C@H]1CC/C(C(=O)OCCOCCOCCOCCOC(=O)/C1=C/CC[C@@]3(C)O[C@H]3[C@H]3OC(=O)C(=C)[C@@H]3CC1)=C\CC[C@@]1(C)O[C@@H]21`, the IC50 in [1] was 16.6 µM; in [2] it was 9.13 µM; in [3] it was 4.26 µM; in assay [4], 20.1 µM; in assay [5], 7.97 µM; in assay [6], 16.1 µM. Besides, the IC50 in assay [7] stood at 16.3 µM. Moreover, the fold change (FC) in [9] is over 2.
With `C=C1C(=O)O[C@H]2[C@H]1CC/C(C(=O)OCCOCCOCCOC(=O)/C1=C/CC[C@@]3(C)O[C@H]3[C@H]3OC(=O)C(=C)[C@@H]3CC1)=C\CC[C@@]1(C)O[C@@H]21`, the IC50 in [1] is 9.59 µM; in assay [2], 3.09 µM; in assay [3] it was 1.59 µM; in assay [4], 10.2 µM; in assay [5], 2.87 µM; in [6], 7.86 µM. In addition, the concentration for half-maximal inhibition (IC50) in assay [7] came to 10.5 µM. In assay [8], the AC50 turned out to be 0.052 µM. Besides, in [9], the fold change (FC) was over 2.
`C=C1C(=O)O[C@H]2[C@H]1CC/C(C(=O)OCCOCCOCCOCCOCCOCCOCCOCCOCCOCCOC(=O)/C1=C/CC[C@@]3(C)O[C@H]3[C@H]3OC(=O)C(=C)[C@@H]3CC1)=C\CC[C@@]1(C)O[C@@H]21`: the IC50 in assay [1] is 23.3 µM; in assay [2] it was over 50 µM; in [3], 14.2 µM; in assay [4], 23.1 µM; in assay [5] it was 18.7 µM; in [6] it was over 50 µM. In [7], the IC50 worked out at 24.5 µM. The fold change (FC) in assay [9] was over 2.
In the case of `C=C1C(=O)O[C@@H]2C3O[C@]3(C)CC/C=C(\C)CC[C@@H]12` (stereo partly drawn), the IC50 in [1] was 12.6 µM; in [2] it was 4.38 µM; in assay [3] it was 5.45 µM; in assay [4], 17.1 µM; in assay [5], 5.94 µM; in [6] it was 7.14 µM. Moreover, the IC50 in assay [7] was determined as 9.52 µM.

The values are drawn from ChEMBL document CHEMBL4376892, “Identification of Parthenolide Dimers as Activators of Pyruvate Kinase M2 in Xenografts of Glioblastoma Multiforme in Vivo” (J Med Chem, 2020).
